The source made the active and inactive calls. The rule behind the calls is not given here.
What was measured:
[1] = target: L-lactate dehydrogenase A chain (Homo sapiens, UniProt P00338); assay: Inhibition of human LDH-A incubated for 10 mins in presence of […] by fluorescence based reader assay
[2] = Antiproliferative activity against mouse FC-1199 cells incubated for 48 hrs by Hoechst 33342 and SYTOX green staining based confocal imaging analysis; assay type: functional, cell-based; conditions: FC-1199, 48 h
MIA PaCa-2 [3] = assay: Reduction in total ATP production rate in human MIA PaCa-2 cells at 15 to 30 uM incubated for 24 hrs by Seahorse assay; assay type: functional, cell-based; conditions: dose 15-30 µM
MIA PaCa-2 [4] = assay: Reduction in pyruvate level in human MIA PaCa-2 cells at 15 uM incubated for 6 to 24 hrs by UPLC-MS analysis; assay type: functional, cell-based; conditions: time 6-24 hrs
[5] = Thermodynamic solubility in PBS at pH 7.4; assay type: physicochemical; conditions: buffer
[6] = Half-life in CD1 mouse at 1 mg/kg, iv; assay type: ADME, organism-based; conditions: in vivo
MIA PaCa-2 [7] = assay: Reduction in intracellular lactate production in human MIA PaCa-2 cells at 15 uM incubated for 6 to 24 hrs by colorimetric assay; assay type: functional, cell-based; conditions: time 6-24 hrs
MIA PaCa-2 [8] = assay: Antiproliferative activity against human MIA PaCa-2 cells incubated for 48 hrs by Hoechst 33342 and SYTOX green staining based confocal imaging analysis; assay type: functional, cell-based; conditions: MIA PaCa-2, 48 h
MIA PaCa-2 [9] = assay: Reduction in total ATP production in human MIA PaCa-2 cells at 10 uM incubated for 48 hrs by Celltiter-glo assay; assay type: functional, cell-based
PANC-1 = assay: Antiproliferative activity against human PANC-1 cells incubated for 48 hrs by Hoechst 33342 and SYTOX green staining based confocal imaging analysis; assay type: functional, cell-based; conditions: PANC-1, 48 h
[10] = Metabolic stability in human liver microsomes assessed as compound remaining after 60 mins; assay type: ADME, Microsome; conditions: read-out: Stability
[11] = AUC(0 to infinity) in CD1 mouse at 5 mg/kg, po; assay type: ADME, organism-based; conditions: in vivo
MIA PaCa-2 [12] = assay: Inhibition of basal glycolysis in human MIA PaCa-2 cells at 10 to 30 uM; assay type: functional, cell-based; conditions: dose 10-30 µM
[13] = AUC(0 to infinity) in CD1 mouse at 1 mg/kg, iv; assay type: ADME, organism-based; conditions: in vivo
[14] = Oral bioavailability in CD1 mouse at 5 mg/kg; assay type: ADME, organism-based; conditions: in vivo
[15] = Metabolic stability in human liver microsomes assessed as compound remaining after 20 mins; assay type: ADME, Microsome; conditions: read-out: Stability
[16] = Metabolic stability in mouse liver microsomes assessed as half-life; assay type: ADME, Microsome
[17] = Volume of distribution in CD1 mouse at 1 mg/kg, iv; assay type: ADME, organism-based; conditions: in vivo
[18] = Metabolic stability in mouse liver microsomes assessed as compound remaining after 30 mins; assay type: ADME, Microsome; conditions: read-out: Stability
MIA PaCa-2 [19] = assay: Synergistic antiproliferative activity against human MIA PaCa-2 cells at 20 uM incubated for 48 hrs in presence of phenformin by fluorescence based confocal imaging analysis; assay type: functional, cell-based
[20] = Tmax in CD1 mouse at 5 mg/kg, po; assay type: ADME, organism-based; conditions: in vivo
[21] = Metabolic stability in mouse liver microsomes assessed as compound remaining after 10 mins; assay type: ADME, Microsome; conditions: read-out: Stability
[22] = Half-life in CD1 mouse at 5 mg/kg, po; assay type: ADME, organism-based; conditions: in vivo
[23] = system: Pancreatic cancer organoid; assay: Antiproliferative activity against human Pancreatic cancer organoid after 72 hrs by MTS assay; assay type: functional, tissue-based
[24] = Metabolic stability in human liver microsomes assessed as intrinsic clearance per mg protein; assay type: ADME, Microsome
MIA PaCa-2 [25] = assay: Reduction in lactate production in human MIA PaCa-2 cells incubated for 6 hrs by colorimetric assay; assay type: functional, cell-based; conditions: dose 15-30 µM
[26] = Clearance in CD1 mouse at 1 mg/kg, iv; assay type: ADME, organism-based; conditions: in vivo
[27] = Cytotoxicity against HPNEs incubated for 48 hrs by Hoechst 33342 and SYTOX green staining based confocal imaging analysis; assay type: toxicity, cell-based; conditions: human, HPNE cells
[28] = Metabolic stability in mouse liver microsomes assessed as compound remaining after 20 mins; assay type: ADME, Microsome; conditions: read-out: Stability
[29] = Metabolic stability in mouse liver microsomes assessed as intrinsic clearance per mg protein; assay type: ADME, Microsome
[30] = Cmax in CD1 mouse at 1 mg/kg, iv; assay type: ADME, organism-based; conditions: in vivo
[31] = Lipophilicity, logP of compound; assay type: physicochemical; conditions: octanol/water
MIA PaCa-2 [32] = assay: Reduction in citric acid level in human MIA PaCa-2 cells at 15 uM incubated for 24 hrs by UPLC-MS analysis; assay type: functional, cell-based
MIA PaCa-2 [33] = assay: Reduction in glycolytic ATP production rate in human MIA PaCa-2 cells at 15 to 30 uM incubated for 24 hrs by Seahorse assay; assay type: functional, cell-based; conditions: dose 15-30 µM
MIA PaCa-2 [34] = assay: Reduction in isocitric acid level in human MIA PaCa-2 cells at 15 uM incubated for 24 hrs by UPLC-MS analysis; assay type: functional, cell-based
MIA PaCa-2 [35] = assay: Reduction in succinic acid level in human MIA PaCa-2 cells at 15 uM incubated for 6 hrs by UPLC-MS analysis; assay type: functional, cell-based
[36] = Metabolic stability in human liver microsomes assessed as half-life; assay type: ADME, Microsome
[37] = Metabolic stability in human liver microsomes assessed as compound remaining after 10 mins; assay type: ADME, Microsome; conditions: read-out: Stability
MIA PaCa-2 [38] = assay: Reduction in total ATP production in human MIA PaCa-2 cells at 15 to 30 uM incubated for 48 hrs by Celltiter-glo assay; assay type: functional, cell-based; conditions: dose 15-30 µM
[39] = Metabolic stability in human liver microsomes assessed as compound remaining after 30 mins; assay type: ADME, Microsome; conditions: read-out: Stability
[40] = Metabolic stability in mouse liver microsomes assessed as compound remaining after 60 mins; assay type: ADME, Microsome; conditions: read-out: Stability
MIA PaCa-2 [41] = assay: Inhibition of compensatory glycolysis in human MIA PaCa-2 cells at 10 to 30 uM; assay type: functional, cell-based; conditions: dose 10-30 µM
[42] = Cmax in CD1 mouse at 5 mg/kg, po; assay type: ADME, organism-based; conditions: in vivo
[43] = target: L-lactate dehydrogenase B chain (Homo sapiens, UniProt P07195); assay: Inhibition of human LDH-B incubated for 10 mins in presence of […] by fluorescence based reader assay
[44] = Drug metabolism in mouse assessed as AUC(0 to infinity) of 4-((4-(1-methyl-1H-imidazole-2-carbonyl)phenyl)amino)-4-oxo-2-(4-(trifluoromethyl)phenyl)butanoic acid at 1 mg/kg, iv; assay type: ADME, organism-based; conditions: in vivo
[45] = Drug metabolism in mouse assessed as tmax of 4-((4-(1-methyl-1H-imidazole-2-carbonyl)phenyl)amino)-4-oxo-2-(4-(trifluoromethyl)phenyl)butanoic acid at 1 mg/kg, iv; assay type: ADME, organism-based; conditions: in vivo
[46] = Drug metabolism in mouse assessed as half-life of 4-((4-(1-methyl-1H-imidazole-2-carbonyl)phenyl)amino)-4-oxo-2-(4-(trifluoromethyl)phenyl)butanoic acid at 5 mg/kg, po; assay type: ADME, organism-based; conditions: in vivo
[47] = Drug metabolism in mouse assessed as Cmax of 4-((4-(1-methyl-1H-imidazole-2-carbonyl)phenyl)amino)-4-oxo-2-(4-(trifluoromethyl)phenyl)butanoic acid at 5 mg/kg, po; assay type: ADME, organism-based; conditions: in vivo
[48] = Drug metabolism in mouse assessed as metabolite 4-((4-(1-methyl-1H-imidazole-2-carbonyl)phenyl)amino)-4-oxo-2-(4-(trifluoromethyl)phenyl)butanoic acid cumulative half-life by LC-MS/MS analysis; assay type: ADME
[49] = Drug metabolism in mouse assessed as half-life of 4-((4-(1-methyl-1H-imidazole-2-carbonyl)phenyl)amino)-4-oxo-2-(4-(trifluoromethyl)phenyl)butanoic acid at 1 mg/kg, iv; assay type: ADME, organism-based; conditions: in vivo
[50] = Drug metabolism in mouse assessed as Cmax of 4-((4-(1-methyl-1H-imidazole-2-carbonyl)phenyl)amino)-4-oxo-2-(4-(trifluoromethyl)phenyl)butanoic acid at 1 mg/kg, iv; assay type: ADME, organism-based; conditions: in vivo
[51] = Drug metabolism in mouse assessed as AUC(0 to infinity) of 4-((4-(1-methyl-1H-imidazole-2-carbonyl)phenyl)amino)-4-oxo-2-(4-(trifluoromethyl)phenyl)butanoic acid at 5 mg/kg, po; assay type: ADME, organism-based; conditions: in vivo
[52] = Drug metabolism in mouse assessed as tmax of 4-((4-(1-methyl-1H-imidazole-2-carbonyl)phenyl)amino)-4-oxo-2-(4-(trifluoromethyl)phenyl)butanoic acid at 5 mg/kg, po; assay type: ADME, organism-based; conditions: in vivo

Sequence of L-lactate dehydrogenase B chain (P07195 whole entry): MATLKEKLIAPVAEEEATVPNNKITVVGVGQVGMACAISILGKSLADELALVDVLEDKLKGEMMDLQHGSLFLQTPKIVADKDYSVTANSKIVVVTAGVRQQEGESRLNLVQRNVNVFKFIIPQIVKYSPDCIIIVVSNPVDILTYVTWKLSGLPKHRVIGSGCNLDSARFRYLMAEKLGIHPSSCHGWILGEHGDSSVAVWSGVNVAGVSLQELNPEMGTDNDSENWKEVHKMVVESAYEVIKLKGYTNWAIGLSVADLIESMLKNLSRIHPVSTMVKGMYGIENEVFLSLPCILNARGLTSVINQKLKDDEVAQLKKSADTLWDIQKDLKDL

SMILES: O=C(CC(C(=O)O)c1ccc(C(F)(F)F)cc1)Nc1ccc(C(=O)c2ccccc2)cc1 (stereo not drawn)
- IC50 [1]: 79.3 µM

SMILES: Cn1ccnc1C(=O)c1ccc(NC(=O)CC(C(=O)O)c2ccc(C(F)(F)F)cc2)cc1 (stereo not drawn)
- IC50 [2]: 20.8 µM
- Activity (MIA PaCa-2 [3]): Active
- Activity (MIA PaCa-2 [4]): Active
- Therm_solubility [5]: 7685 µg/mL
- half-life [6]: 2.9 h
- Activity (MIA PaCa-2 [7]): Active
- IC50 (MIA PaCa-2 [8]): 14.1 µM
- Activity (MIA PaCa-2 [9]): inactive
- IC50 (PANC-1): 43.3 µM
- remaining at 1 h [10]: 75.6%
- AUC(0-inf) [11]: 36.4 µM·h
- inhibition (MIA PaCa-2 [12]): Active
- AUC(0-inf) [13]: 10 µM·h
- F [14]: 33%
- remaining at 20 min [15]: 94.8%
- t1/2 [16]: > 1 h
- Vd [17]: 0.9 L/kg
- remaining at 0.5 h [18]: 98%
- Activity (MIA PaCa-2 [19]): Active
- Tmax [20]: 0.5 h
- remaining at 10 min [21]: 98.6%
- half-life [22]: 2.4 h
- IC50 [23]: 32.3 µM
- CLint [24]: < 23 µL/min/mg
- Activity (MIA PaCa-2 [25]): Dose-Dependent Effect
- clearance ([26]; mouse, iv, 1 mg/kg): 110 mL/min/kg
- IC50 at 48 h [27]: > 50 µM
- remaining at 20 min [28]: 96%
- CLint [29]: < 23 µL/min/mg
- Cmax [30]: 21.2 µM
- logP [31]: 2.47
- Activity (MIA PaCa-2 [32]): Active
- Activity (MIA PaCa-2 [33]): Active
- Activity (MIA PaCa-2 [34]): Active
- Activity (MIA PaCa-2 [35]): Active
- t1/2 [36]: > 1 h
- remaining at 10 min [37]: 95.5%
- Activity (MIA PaCa-2 [38]): Active
- remaining at 0.5 h [39]: 90.5%
- remaining at 1 h [40]: 88.4%
- inhibition (MIA PaCa-2 [41]): Active
- Cmax [42]: 10.4 µM

SMILES: O=C(CC(C(=O)O)c1ccc(C(F)(F)F)cc1)Nc1ccc(-c2cccs2)cc1 (stereo not drawn)
- IC50 [43]: > 100 µM
- IC50 [1]: > 100 µM

SMILES: Cn1ccnc1C(=O)c1ccc(NC(=O)CC(C(=O)O)c2ccc(Cl)cc2)cc1 (stereo not drawn)
- IC50 [1]: 0.19 µM

SMILES: COC(=O)C(CC(=O)Nc1ccc(C(=O)c2nccn2C)cc1)c1ccc(F)cc1 (stereo not drawn)
- IC50 [1]: 37.8 µM

SMILES: COC(=O)C(CC(=O)Nc1ccc(C(=O)c2nccn2C)cc1)c1ccc(Cl)cc1 (stereo not drawn)
- IC50 [2]: 23.4 µM
- IC50 (MIA PaCa-2 [8]): 24.2 µM
- IC50 (PANC-1): > 50 µM
- IC50 at 48 h [27]: 26.5 µM

SMILES: COC(=O)C(CC(=O)Nc1ccc(N2CCN(C)CC2)cc1)c1ccc(C(F)(F)F)cc1 (stereo not drawn)
- IC50 [1]: 66.4 µM

SMILES: COC(=O)C(CC(=O)Nc1ccc(C(=O)c2nccn2C)cc1)c1ccc(C(F)(F)F)cc1 (stereo not drawn)
- IC50 [2]: 12.1 µM
- half-life [6]: 1.19 h
- IC50 (MIA PaCa-2 [8]): 25.6 µM
- IC50 (PANC-1): 23.9 µM
- AUC(0-inf) [11]: 0.551 µM·h
- AUC(0-inf) [13]: 0.328 µM·h
- F [14]: 73%
- Vd [17]: 10 L/kg
- AUC [44]: 4.04 µM·h
- Tmax [20]: 0.25 h
- Tmax [45]: 0.5 h
- t1/2 [46]: 2.92 h
- half-life [22]: 1.63 h
- Cmax [47]: 9.76 µM
- t1/2 [48]: 4.5 h
- clearance ([26]; CD1, mouse): 110 mL/min/kg
- IC50 at 48 h [27]: 49.5 µM
- Cmax [30]: 1.02 µM
- t1/2 [49]: 2.18 h
- Cmax [50]: 1.01 µM
- AUC [51]: 25.96 µM·h
- Tmax [52]: 0.5 h
- Cmax [42]: 0.48 µM

SMILES: COC(=O)C(CC(=O)Nc1ccc(C(=O)c2nccn2C)cc1)c1ccccc1 (stereo not drawn)
- IC50 [1]: 2.49 µM

SMILES: O=C(O)CC(NC(=O)Cc1ccc(C(F)(F)F)cc1)c1cccc(Cl)c1 (stereo not drawn)
- IC50 [43]: > 100 µM
- IC50 [1]: > 100 µM

Source: ChEMBL document CHEMBL5584248, “Synthesis and biological characterization of an orally bioavailable lactate dehydrogenase-A inhibitor against pancreatic cancer” (Eur J Med Chem, 2024)
